From PubChem BioAssay AID1963825 (Molecular Pharmacology Branch, DTP, NCI, 2024)

Assay: Anticancer human tumor 997537-175-T-J1-PDC patient-derived colon adenocarcinoma cell line growth inhibition [POLQ]
Conditions: 997537-175-T-J1-PDC complex spheroid viability, combination with POLQ inhibitors; for IC50: curve of first compound; for viability, T/C: stronger effect = lower value
Method in brief: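 Growth inhibition in 3D: complex spheroids (tumor PDC, HUVEC, MSC) treated with POLQ inhibitor combinations; where Cmax unknown, highest tested concentration 10 microM, except SN-38 at 1 microM.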
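Also: luminescence signal used as a surrogate for viable cells; spheroids exposed to drugs for seven days before readout.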

## CC(=O)O[C@H]1C(=O)[C@@]2(C)[C@H]([C@H](OC(=O)c3ccccc3)[C@]3(O)C[C@H](OC(=O)[C@H](O)[C@@H](NC(=O)c4ccccc4)c4ccccc4)C(C)=C1C3(C)C)[C@]1(OC(C)=O)CO[C@@H]1C[C@@H]2O + Nc1ccc(C#CCN(C(=O)Cc2ncc(C(F)(F)F)cc2C(F)(F)F)c2ccc(F)cc2)nn1
Second compound 0.0316 µM
  IC50: 27 nM
Second compound 0.1 µM
  IC50: 50.1 nM
Second compound 0.316 µM
  IC50: 16.8 nM
Second compound 1 µM
  IC50: 14.8 nM
Second compound 3.16 µM
  IC50: 32.5 nM
Second compound 10 µM
  IC50: 18.5 nM
Second compound 0.0316 µM, first compound 0.00949 µM
  viability, T/C: 50.5%
Second compound 0.0316 µM, first compound 0.03 µM
  viability, T/C: 57.6%
Second compound 0.0316 µM, first compound 0.0949 µM
  viability, T/C: 32.5%
Second compound 0.0316 µM, first compound 0.3 µM
  viability, T/C: 55.7%
Second compound 0.0316 µM, first compound 0.949 µM
  viability, T/C: 33.8%
Second compound 0.0316 µM, first compound 3 µM
  viability, T/C: 34.3%
Second compound 0.1 µM, first compound 0.00949 µM
  viability, T/C: 70%
Second compound 0.1 µM, first compound 0.03 µM
  viability, T/C: 28.4%
Second compound 0.1 µM, first compound 0.0949 µM
  viability, T/C: 58%
Second compound 0.1 µM, first compound 0.3 µM
  viability, T/C: 46.9%
Second compound 0.1 µM, first compound 0.949 µM
  viability, T/C: 23.3%
Second compound 0.1 µM, first compound 3 µM
  viability, T/C: 23.3%
Second compound 0.316 µM, first compound 0.00949 µM
  viability, T/C: 69.7%
Second compound 0.316 µM, first compound 0.03 µM
  viability, T/C: 27.3%
Second compound 0.316 µM, first compound 0.0949 µM
  viability, T/C: 27.9%
Second compound 0.316 µM, first compound 0.3 µM
  viability, T/C: 16.8%
Second compound 0.316 µM, first compound 0.949 µM
  viability, T/C: 41.3%
Second compound 0.316 µM, first compound 3 µM
  viability, T/C: 37.1%
Second compound 1 µM, first compound 0.00949 µM
  viability, T/C: 55.2%
Second compound 1 µM, first compound 0.03 µM
  viability, T/C: 44.6%
Second compound 1 µM, first compound 0.0949 µM
  viability, T/C: 31.6%
Second compound 1 µM, first compound 0.3 µM
  viability, T/C: 25.8%
Second compound 1 µM, first compound 0.949 µM
  viability, T/C: 30.1%
Second compound 1 µM, first compound 3 µM
  viability, T/C: 38.3%
Second compound 3.16 µM, first compound 0.00949 µM
  viability, T/C: 54.5%
Second compound 3.16 µM, first compound 0.03 µM
  viability, T/C: 48.2%
Second compound 3.16 µM, first compound 0.0949 µM
  viability, T/C: 44.2%
Second compound 3.16 µM, first compound 0.3 µM
  viability, T/C: 36%
Second compound 3.16 µM, first compound 0.949 µM
  viability, T/C: 24.6%
Second compound 3.16 µM, first compound 3 µM
  viability, T/C: 31%
Second compound 10 µM, first compound 0.00949 µM
  viability, T/C: 68.6%
Second compound 10 µM, first compound 0.03 µM
  viability, T/C: 35.8%
Second compound 10 µM, first compound 0.0949 µM
  viability, T/C: 37.6%
Second compound 10 µM, first compound 0.3 µM
  viability, T/C: 33.4%
Second compound 10 µM, first compound 0.949 µM
  viability, T/C: 38.5%
Second compound 10 µM, first compound 3 µM
  viability, T/C: 23.9%
